Laboratory results from PMC3679140, “Synthesis of Indole Derived Protease-Activated Receptor 4 Antagonists and Characterization in Human Platelets” (PLoS ONE, 2013).

Assays:
[1] = tested on: thrombin mediated platelet GPIIbIIIa activation; assay: Flow cytometry: thrombin mediated GPIIbIIIa activation in washed platelets; format: cell-based, human; conditions: for Addition of the effect of RWJ-56110 on thrombin and the effect of the compound on PAR1-AP: sum of separate inhibitory effects, 1 µM compound, 10 µM RWJ-56110
Experimental: (§1) Briefly, 60 µL of washed platelets at a concentration of 1.5×10^7 platelets/mL were added to polystyrene tubes. Anti-CD62P antibody or PAC-1 antibody were diluted (per manufacturer protocol) in Tyrode’s buffer containing 0.1% BSA. 40 µL of diluted antibody was added to the platelets and allowed to bind for 5 minutes. Platelets were pre-treated with indicated concentrations of antagonist or DMSO control for 5 minutes followed by addition of PAR1-AP or PAR4-AP for 10 minutes. Platelet activity was quenched by the addition ice cold 1.5% paraformaldehyde followed by dilution in 1X phosphate buffered saline. The final DMSO concentration was 0.5%. Platelets were stored up to 18 hours at 4°C before flow cytometric analysis. Analysis was carried out on a BD FACS Canto II (Franklin Lakes, NJ). Fluorescent intensity was determined for 100,000 events within the platelet gate. Data was collected and analyzed via FACS DiVa software.
(§2) 100% max response was determined for each individual as the DMSO treated control stimulated with either 200 µM PAR4-AP, 20 µM PAR1-AP, or 10 nM thrombin. Samples treated with antagonist were normalized as a percentage of the DMSO treated control. Normalized data was plotted in GraphPad PRISM v.5.0. Dose response curves and subsequent IC50 values were generated using the ‘log(inhibitor) vs. response variable slope’ parameter. Data plotted is mean±S.E.M. or mean±S.D.

PAR4 [2] = target: T1, PAR4 (Homo sapiens, UniProt Q96RI0); assay: High-throughput platelet calcium mobilization assay (PAR4-AP stimulated); format: cell-based; conditions: for Emax at 10 µM: 10 µM compound 6 min prior to 80 µM PAR4-AP, Figure 2D, read-out: PAR4 mediated platelet calcium mobilization, percent of the maximum response
T1 construct: Human platelets express both PAR1 and PAR4; endogenous in cells; host or cells: washed human platelets from volunteer donors
T1 sequence (Q96RI0 18-385): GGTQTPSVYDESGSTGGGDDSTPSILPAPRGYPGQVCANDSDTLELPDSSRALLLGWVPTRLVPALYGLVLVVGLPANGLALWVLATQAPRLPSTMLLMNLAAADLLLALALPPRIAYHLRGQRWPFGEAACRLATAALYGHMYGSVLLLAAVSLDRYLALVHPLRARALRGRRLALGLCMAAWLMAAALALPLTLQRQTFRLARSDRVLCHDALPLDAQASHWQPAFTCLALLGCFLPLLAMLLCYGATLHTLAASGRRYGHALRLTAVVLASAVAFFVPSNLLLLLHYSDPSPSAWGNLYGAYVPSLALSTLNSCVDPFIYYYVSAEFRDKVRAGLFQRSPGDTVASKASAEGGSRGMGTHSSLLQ
Experimental: Washed human platelets were prepared via standard procedure and suspended in Tyrode’s buffer containing 0.1% BSA. Platelets were dye loaded for 1 hour with Fluo4-AM in calcium assay buffer (1X HBSS without calcium or magnesium, 20 mM HEPES, 2.5 mM probenecid, 1 mM EGTA, 0.1% BSA). The calcium assay buffer containing dye is mixed with platelets to yield a final concentration of 2.5 µg/mL Fluo4-AM and 1.0×10^8 platelets/mL. 60 µL of dye loaded platelets were added to each well of a NUNC 384 well plate black optical bottom plate (Thermo, Rochester, NY). Fluorescence measurements were recorded on a Functional Drug Screening System (FDSS) 6000, Hamamatsu (Hamamatsu, Japan) at 37°C. […] Compounds were injected by the FDSS and occurred simultaneously across each plate. Experiments reported were performed in triplicate, on the same plate, from the indicated number of donors. 480∶540 (ex:em) was measured each second for a total of 12 minutes. The final concentration of DMSO in the assay was 0.5%.
The difference between basal (defined as t0) and maximal relative fluorescence unit (RFU) values (ΔRFUs) for ex:em 480∶540 was determined for each well. The triplicate ΔRFU for DMSO treated control wells stimulated with 80 µM PAR4-AP was averaged and the average value ΔC was set to 100% max response for each plate. Each well was subsequently normalized as a percent of the ΔC control (value/ΔC×100). Normalized data was plotted in GraphPad PRISM v.5.0.

PAR4 [3] = target: T1, PAR4; assay: Flow cytometry: PAR4-AP mediated GPIIbIIIa activation (PAC-1 binding) in washed platelets; format: cell-based; conditions: for IC50: 200 µM PAR4-AP, compound 5 min before, normalized to DMSO control, Figure 4; for Extent of antagonism of PAR4 mediated platelet response / GPIIbIIIa activation: maximal (200 µM) PAR4-AP, up to 10 µM compound
Experimental: as §1, with “Platelet activity was quenched by the addition ice cold 1.5% paraformaldehyde followed by dilution in 1X phosphate buffered saline.” left out
as §2

PAR1 [4] = target: T2, PAR1 (Homo sapiens, UniProt P25116); assay: Flow cytometry: PAR1-AP mediated GPIIbIIIa activation (PAC-1 binding) in washed platelets; format: cell-based; conditions: 20 µM PAR1-AP
T2 construct: Human platelets express both PAR1 and PAR4; endogenous in cells; host or cells: washed human platelets from volunteer donors
T2 sequence (P25116 22-425): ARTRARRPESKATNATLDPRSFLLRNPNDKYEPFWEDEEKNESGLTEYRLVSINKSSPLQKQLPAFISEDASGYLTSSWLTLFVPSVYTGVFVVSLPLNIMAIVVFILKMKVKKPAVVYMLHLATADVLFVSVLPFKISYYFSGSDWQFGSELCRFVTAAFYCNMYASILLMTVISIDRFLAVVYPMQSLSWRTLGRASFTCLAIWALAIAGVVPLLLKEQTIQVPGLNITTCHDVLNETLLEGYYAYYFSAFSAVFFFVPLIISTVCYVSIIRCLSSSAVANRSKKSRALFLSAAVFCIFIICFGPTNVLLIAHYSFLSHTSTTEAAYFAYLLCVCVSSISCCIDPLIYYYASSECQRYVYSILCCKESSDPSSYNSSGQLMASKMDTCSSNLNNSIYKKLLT
Experimental: as §1, with “Platelet activity was quenched by the addition ice cold 1.5% paraformaldehyde followed by dilution in 1X phosphate buffered saline.” left out
as §2

PAR4 [5] = target: T1, PAR4; assay: PAR4-AP mediated platelet aggregation (light transmittance); format: cell-based; conditions: 200 µM PAR4-AP; compound 10 min before; Figure 6
Experimental: (§3) Briefly, washed human platelets were prepared to a final concentration of 2.0×10^8 platelets/mL in Tyrode’s buffer containing 0.1% BSA. Compounds or DMSO control were added 10 minutes prior to stimulation with either PAR1-AP or PAR4-AP. The final DMSO concentration was 0.1%. Light transmittance was recorded by a Chrono-Log Model 700 Aggregometer.
(§4) The percent of light transmitted as reported by the aggregometer was recorded in GraphPad PRISM v.5.0. 100% light transmission signifies full platelet aggregation.

PAR1 [6] = target: T2, PAR1; assay: PAR1-AP mediated platelet aggregation (light transmittance); format: cell-based; conditions: 20 µM PAR1-AP; compound 10 min before; Figure 6
Experimental: as §3, §4

PAR4 [7] = target: T1, PAR4; assay: Flow cytometry: PAR4-AP mediated P-selectin expression (anti-CD62P binding) in washed platelets; format: cell-based
Experimental: as §1, with “Platelet activity was quenched by the addition ice cold 1.5% paraformaldehyde followed by dilution in 1X phosphate buffered saline.” left out
as §2

PAR4 [8] = target: T1, PAR4; parameters: method as in PMID 12083482; conditions: cited from earlier work
[9] = 1 µM compound + 10 µM RWJ-56110, 10 nM thrombin

Q: With `CCOC(=O)c1ccc(-c2cn(Cc3ccccc3)c3ccccc23)cc1` [Compound 1] as the molecule, how does the “Reduction of thrombin mediated GPIIbIIIa activation in combination with RWJ-56110” value (“Reduction … with RWJ-56110” for short) [1, 9] read?
A: Its value is 37.1±6.4%.

Q: What about the “Addition of the effect of RWJ-56110 on thrombin and the effect of the compound on PAR1-AP” value [1] of the same molecule?
A: The value was 32.5±6.1%.

Q: With `CCOC(=O)c1ccc(-c2cn(Cc3ccccn3)c3ccccc23)cc1` [Compound 3] as the molecule, how does the Emax at 10 µM (PAR4 [2]) read?
A: Its Emax at 10 µM is less than 50%.

Q: What about the IC50 (PAR4 [3]) of the same molecule?
A: The IC50 was 1000 ± 1100 nM.

Q: What about the “Extent of antagonism of PAR4 mediated platelet response / GPIIbIIIa activation” value (PAR4 [3]) of the same molecule?
A: The value was “fully antagonize”.

Q: And the “Reduction of PAR1 mediated GPIIbIIIa activation” value (PAR1 [4]; 3.16 µM compound)?
A: The value was 7.2±1.3%.

Q: What about the “Reduction … with RWJ-56110” value ([1]; 3.16 µM compound + 10 µM RWJ-56110, 10 nM thrombin) of the same molecule?
A: The value was 14±2%.

Q: And the “Inhibition of PAR4 mediated platelet aggregation” value (PAR4 [5])?
A: The value was “non-significantly”.

Q: With `CCOC(=O)c1ccc(-c2cn(Cc3ccccc3)c3ncccc23)cc1` [Compound 5] as the molecule, how does the Emax at 10 µM (PAR4 [2]) read?
A: The Emax at 10 µM was less than 50%.

Q: What about the IC50 (PAR4 [3]) of the same molecule?
A: Its IC50 is 170 ± 1 nM.

Q: And the “Extent of antagonism of PAR4 mediated platelet response / GPIIbIIIa activation” value (PAR4 [3])?
A: Its value is “fully antagonize”.

Q: And the “Reduction of PAR1 mediated GPIIbIIIa activation” value (PAR1 [4]; 1 µM compound)?
A: Its value is 7.2±1.4%.

Q: And the “Reduction … with RWJ-56110” value [1, 9]?
A: The value was 17±2%.

Q: And the “Inhibition of PAR4 mediated platelet aggregation” value (PAR4 [5])?
A: Its value is “significantly inhibit PAR4”.

Q: What about the “Inhibition of PAR1 mediated platelet aggregation” value (PAR1 [6]) of the same molecule?
A: Its value is “not PAR1 mediated platelet aggregation”.

Q: With `NCC[C@H](NC(=O)[C@H](Cc1ccc(F)c(F)c1)NC(=O)Nc1ccc2c(CN3CCCC3)cn(Cc3c(Cl)cccc3Cl)c2c1)C(=O)NCc1ccccc1` [RWJ-56110, reference compound] as the molecule, how does the “Inhibition of thrombin mediated GPIIbIIIa activation, compound alone” value ([1]; 10 µM RWJ-56110 alone, 10 nM thrombin) read?
A: The value was 18.4±5.4%.

Q: Which results are given for `CCOC(=O)c1ccc(-c2nn(Cc3ccccc3)c3ccccc23)cc1` [YD-3, ethyl 4-(1-benzyl-1H-indazol-3-yl)benzoate, reference compound]?
A: Inhibition time course of PAR4-AP calcium mobilization (PAR4 [2]; 10 µM YD-3, increasing treatment times, then 80 µM PAR4-AP, Figure 2B): significant inhibition by YD-3 occurred as early as 1 minute; IC50 (PAR4 [3]): 26 ± 1 nM; Reduction of thrombin mediated GPIIbIIIa activation in combination with RWJ-56110 [1, 9]: 42.9±9.7%; Addition of the effect of RWJ-56110 on thrombin and the effect of the compound on PAR1-AP [1]: 26.8±6.0%; IC50 (PAR4 [7]; 200 µM PAR4-AP, from raw mean fluorescent intensity values, Figure S4): 16.4 ± 1.1 nM; Mechanism of action against PAR4 (shift of PAR4-AP concentration response curve) (PAR4 [7]; P-selectin expression, twelve point PAR4-AP CRCs with increasing antagonist, Figure 7): competitive mechanism of action; Mechanism of action against PAR4 by platelet aggregation (PAR4 [8]): competitive in nature
